The source of these data is patent publication US6235716A, “Multivalent ligands which modulate angiogenesis” (Children's Medical Center Corporation, priority 1999, dated 2001).

No end group written: not given here.

Assay [1] concerns B16 melanoma tumors. Briefly: Multivalent ligands modulate B16 melanoma tumor growth in mice. It is filed as in vivo. The conditions noted are these: C57BL or CBF1 mice; S.C. injection remote from tumor, 20-30 mg/kg body weight/day for two weeks, started one week after tumor inoculation. As for the experimental part: B16 melanoma cells were injected into 7-8 week old female C57BL mice or CBF1 mice, S.C., 2×10^5 cells per mouse, in 0.1 ml volume. One week after the tumor innoculation, the treatment was started by S.C. injection at sites remote from the tumor of the indicated multivalent ligand at a dose 20-30 mg/kg body weight/day for a period of two weeks. Tumors were measured with a dial-caliper and volumes were determined using the formula: (width)^2×length×0.52. Each group (experimental or control) contained 5-6 mice. FIGS. 6-9 depict changes in mean tumor-volume over time.

Assay [2] concerns bovine aortic endothelial cells (A19 cells). Put plainly: Proliferation of bovine aortic endothelial cells in vitro (methylene blue staining, O.D. 630 nm). The conditions noted are these: increasing concentrations (μg/ml), 72-80 hours incubation, medium with 1 ng/ml basic fibroblast growth factor; relative to untreated cells. The class given is cell-based. As for the experimental part:
The experiments were performed using 96 well, flat bottom, tissue culture microtiter plates. Culture medium was prepared from DMEM, penicillin (100 U/ml), streptomycin (100 μg/ml), glutamine (2 mM), 10% endotoxin free bovine calf serum (Hyclone) and 1 ng/ml of basic fibroblast growth factor (any commericial source).
Bovine aortic endothelial cells (referred to herein as "A19 cells") were obtained by procedures disclosed in Gospodorowicz et al., Proc. Natl. Acad. Sci. USA 73:4120 (1976), the entire teachings of which are incorporated herein by reference. An A19 cell suspension at 25×10^3 cells/ml was prepared in the above described culture medium and distributed 0.160 ml/well (about 4000 endothelial cells/well).
Multivalent ligand peptides Tip-18.40 and Tip-19.40 stock solutions was prepared by diluting a 10 mM solution of the HJ peptide in 100% DMSO with phosphate buffered saline (PBS)containing 0.1% BSA. The concentration of HJ peptide in each stock solution was adjusted to nine times the desired concentration of the HJ peptide in the assay mixture. 0.020 ml of each HJ peptide stock solution was added to the corresponding wells about 2 hours after BCE plating, with six replicates for each concentration. […]
The wells were washed one time with borate buffer (0.1 M, pH 8.5). […] After extracting overnight, the O.D. was read at 630 nm to determine the relative number of cells per well. […]

As to “Tip-12.40: four-branch pennant polylysine trimer; four peptides of SEQ ID NO.: 7 (endostatin AHR derivative) attached by covalent bond (Ac-TFRAFLSSRLQDLYSIVRRADG; also: four copies on branched polylysine core)”, the “effect on B16 melanoma tumor growth (mean tumor volume over time versus vehicle control)” value in assay [1] is “suppressed tumor growth”.
For “Tip-13.40: four-branch pennant polylysine trimer; four peptides of SEQ ID NO.: 8 (TSP-1 AHR derivative) attached by covalent bond (Ac-AYRWRLSHRPKTGFIRVVMYEG; also: four copies on branched polylysine core)”, in assay [1], the “effect on B16 melanoma tumor growth (mean tumor volume over time versus vehicle control)” value was “suppressed tumor growth”.
On the same count and under the same terms, next, “Tip-14.40: four-branch pennant polylysine trimer; four TSP-1/endostatin hybrid peptides of SEQ ID NO.: 3 attached by covalent bond (Ac-TFRAFLSSRLQTGFIRVVMYEG; also: four copies on branched polylysine core)”: “weak, but statistically significant inhibition”; “Tip-15.40: four-branch pennant polylysine trimer; four TSP-1/endostatin hybrid peptides of SEQ ID NO.: 4 attached by covalent bond (Ac-AYRWRLSHRPKDLYSIVRRADG; also: four copies on branched polylysine core)”: “weak, but statistically significant inhibition”; “Tip-16.40: four-branch pennant polylysine trimer; four hybrid peptides of SEQ ID NO.: 10 attached via -Gly-Gly- linker (Ac-AYRWRLSHRPKDLYSIVRRADR; not fully specified; printed as Ac-AYRWRLSHRPKDLYSIVRRADR; also: four copies on polylysine core via Gly-Gly linker)”: “suppressed tumor growth”.
The same measure, in the same setting: the same measure for “Tip-17.40: four-branch pennant polylysine trimer; four hybrid peptides of SEQ ID NO.: 9 attached via -Gly-Gly- linker (Ac-TAYRWRLSHRPKDLYSIVRRADR; not fully specified; printed as Ac-TAYRWRLSHRPKDLYSIVRRADR; also: four copies on polylysine core via Gly-Gly linker)”: “promoted tumor growth”.
Consider “Tip-18.40: four-branch pennant polylysine trimer; four hybrid peptides of SEQ ID NO.: 11 attached via -Gly-Gly- linker (Ac-RWRLSHRPKDLYSIVRRADR; not fully specified; printed as Ac-RWRLSHRPKDLYSIVRRADR; also: four copies on polylysine core via Gly-Gly linker)”, for which the “effect on B16 melanoma tumor growth (mean tumor volume over time versus vehicle control)” value in assay [1] is given as “suppressed tumor growth”. Also, the “effect on proliferation of bovine aortic endothelial cells in vitro” value in assay [2] is listed as “inhibit the proliferation”.
As for “Tip-19.40: four-branch pennant polylysine trimer; four hybrid peptides of SEQ ID NO.: 12 attached via -Gly-Gly- linker (Ac-KDFTAYRWRLSHRPKDLYSIVRRADR; not fully specified; printed as Ac-KDFTAYRWRLSHRPKDLYSIVRRADR; also: four copies on polylysine core via Gly-Gly linker)”, the “effect on B16 melanoma tumor growth (mean tumor volume over time versus vehicle control)” value in assay [1] was “suppressed tumor growth”. Further, the “effect on proliferation of bovine aortic endothelial cells in vitro” value in assay [2] is recorded as “inhibit the proliferation”.
